The text below walks through data of patent US12252423B2, “Biodegradation of fluorochemicals” (The Trustees of Princeton University, priority 2018, dated 2025).

For this series, the system named is pure and enrichment cultures. Briefly: Toxicity experiments: effect of PFAS on biomass over a 14-day incubation. The conditions noted are these: for toxicity / effects on the overall bacterial numbers: 1 ppb, 10 ppb, 100 ppb and 1 ppm, 14 days incubation, pure and enrichment cultures; for biomass growth: 1 ppm, pure culture incubations, 14 days. The series is classed as cell-based, Acidimicrobiaceae sp. A6 / Terrimonas sp. A8. The protocol:
Toxicity experiments were conducted for both pure and enrichment cultures with selected PFAS Compounds. The concentrations to test were 1 ppb, 10 ppb, 100 ppb and 1 ppm. During 14 days incubation, no toxicity of Heptafluorobutyric acid (HFBA), Perfluorooctanoic acid (PFOA) was evidenced by cultures with these concentrations.
All Incubations were conducted in 20-ml serum vials with a pure strain A6 (Acidimicrobiaceae sp.)/A8 (Terrimonas sp.) or an enrichment culture, which contained 40.1-48.5% of Acidimicrobiaceae sp. A6, and in the anoxic inorganic Fe(III)-NH4^+ enrichment medium. The composition of the inorganic Fe(III)-NH4^+ enrichment medium (pH 4.5-5.0) consisted of 504 mg/L 2-line ferrihydrite [Fe2O3·0.5H2O], 177 mg/l NH4Cl, 77.9 mg/L (NH4)2SO4, 19.8 mg/L NaHCO3, 71.0 mg/L KHCO3, 9.00 mg/L KH2PO4, 100 mg/L MgSO4·7H2O, and 60.0 mg/L CaCl2·2H2O, in addition to 1 ml/L of a trace element solution, and 1 ml/L of a vitamin solution (ATCC® MD-VS™). An electron shuttling compound, 9,10-Anthraquinone-2,7-disulphonic acid (AQDS), was added to the pure strain A6 with a final concentration as 0.05 mg/L. To achieve strictly anoxic conditions, the headspace of each incubation vial was vacuumed until no bubble formation was observed and then flushed with a N2/CO2 (80:20) gas mixture, which was repeated 3 times. Then, for the PFAS degradation experiment, an equal volume of either HFBA, PFOA and PFBS was added to each group of vials, to yield final concentrations to 100 ppb. In the control group, autoclave control, without PFASs and without addition of NH4^+ were prepared. All These vials were placed on a shaker (100 rpm) in an anaerobic glove box for 14-day incubations at ambient temperature. Duplicate samples were collected destructively every week for Fe(II), NH4^+, and HFBA/PFOA/PFBS analyses.
Toxicity experiments, in terms of how each of these PFAS affects the biomass over a 14-day incubation, were conducted for both pure and enrichment cultures. The concentrations tested were 1 ppb, 10 ppb, 100 ppb and 1 ppm. During 14 days of incubation, no effects by Heptafluorobutyric acid (HFBA) and Perfluorooctanoic acid (PFOA) on the overall bacterial numbers were detected for these concentrations. However, the biomass growth was inhibited when the concentration of 2,2,2-Trifluoroethyl Nonafluorobutanesulfonate was 1 ppm in the incubation with the pure culture.

“Also recorded” adds a separate entry of the source.

Take `O=C(O)C(F)(F)C(F)(F)C(F)(F)F` [HFBA, Heptafluorobutyric acid]: the “toxicity / effects on the overall bacterial numbers” value is “no toxicity; also recorded: no effects”. As for `O=S(=O)(OCC(F)(F)F)C(F)(F)C(F)(F)C(F)(F)C(F)(F)F` [PFBS, 2,2,2-Trifluoroethyl Nonafluorobutanesulfonate], the biomass growth entry is recorded as “slightly inhibited”. Further, for the setting “listed as 2,2,2-Trifluoroethyl Nonafluorobutanesulfonate”, the biomass growth result is given as “inhibited”. Take `O=C(O)C(F)(F)C(F)(F)C(F)(F)C(F)(F)C(F)(F)C(F)(F)C(F)(F)F` [PFOA, Perfluorooctanoic acid]: the “toxicity / effects on the overall bacterial numbers” value is “no toxicity; also recorded: no effects”.
